Like-named read-outs stand apart in the source and are kept apart here.
How the values were obtained:
[1] = molecular target: recombinant wild-type and mutated EGFR; experiment: Off-chip mobility shift assay (MSA) at ATP concentrations near Km; format: biochemical, human; settings: ATP concentrations near the Km values for ATP in each recombinant EGFR
Description: The reaction mixtures and test compounds dissolved in dimethylsulfoxide (DMSO) were mixed and incubated for 1 hour at room temperature. The reaction was terminated by adding the Termination Buffer of QuickScout Screening Assist MSA (Carna Biosciences). The reaction mixture was applied to a LabChip system (PerkinElmer), and the product (P) and substrate (S) peptide peaks were separated and quantified. The kinase reaction was evaluated by calculating the product ratio from the peak heights of the P and S peptides (P/(P + S)). […] IC50 values were calculated from the concentration vs %inhibition curves by fitting to a four-parameter logistic curve using Microsoft Excel 2013 with the Solver add-in software.
Supplementary Fig 1. Chemical structure of EGFR-TKIs in the series of pyrrolopyrimidine-quinoline chemical core structure. The chemical structures of TAS3351 (a), TAS3351 analog, […]
the pyrrolopyrimidine-quinoline chemical core structure. Red-highlighted parts of the chemical structures indicate the pyrrolopyrimidine-quinoline. […]
inhibition was measured via Off-chip Mobility Shift Assay (MSA) using recombinant wild-type and mutated EGFR in the ATP concentration relevant to Km values of each human recombinant EGFR. ATP concentrations in the assay in each recombinant EGFR are as follows: wild type, ex19del/T790M, and […]
indicate standard deviation (s.d.) from triplicates. […]

[2] = tested on: Ba/F3 cell EGFR (ex19del); experiment: Ba/F3-EGFR cell viability assay (CellTiter-Glo); format: cell-based, murine; settings: Mus musculus, BaF3, Mean
Description: (§1) Human full-length EGFR harboring a particular mutation or wild-type EGFR was cloned into the PB-CMV-MCS-EF1-RFP-T2A-Puro PiggyBac vector (System Biosciences) to construct the EGFR PiggyBac vector plasmids. Each EGFR PiggyBac plasmid was simultaneously transfected into Ba/F3 cells with Super PiggyBac Transposase Expression Vector (System Biosciences) using a Nucleofector (Lonza). Afterward, the cells were treated with puromycin to select the cells which were stably integrated EGFR.
(§2) In Ba/F3-EGFR (wild-type) cells, hEGF (FUJIFILM Wako Pure Chemical Corporation) was added at a final concentration of 50 ng/mL. […] The cells were treated with appropriately diluted test compounds in DMSO and incubated for 3 days. Cell viability was analyzed using CellTiter-Glo 2.0 (Promega), according to the manufacturer’s protocol. The IC50 values were calculated by nonlinear regression analysis using XLfit.

[3] = tested on: Ba/F3 cell EGFR (L858R/T790M/C797S); experiment: Ba/F3-EGFR cell viability assay (CellTiter-Glo); format: cell-based, murine; settings: Mus musculus, BaF3, Mean
Description: as §1, §2

[4] = tested on: A-431 (wild-type) xenograft; format: in vivo, mouse; settings: at least at doses below 50 mg/kg; once-daily oral
Description: The tumor volumes were calculated using the following equation: Tumor Volume (mm^3) = 0.5 × major axis (mm) × minor axis (mm) × minor axis (mm). […] Tukey’s test (SAS with EXSUS) was used to evaluate statistical significance (p ≥ 0.05) on the logarithmically transformed mean tumor volume in each allocated group on Days 0 or 1, and no statistical significance was confirmed before initiating the experiments. During the experiments, the mice in each labeled cage were identified by the position of the cut on their pinnae. The test compounds were administered orally at a dose of 10 mL/kg. The tumor volume and body weight of each mouse were measured once every 2–5 days. The application of the humane endpoints was determined primarily based on tumor volume, body weight change, and systemic physical condition. […]
The statistical analyses were performed with SAS (SAS Institute Inc., ver. 9.4) in an EXSUS (EPS Corporation, ver. 10.0.3) environment. In the studies of subcutaneous tumor-transplant mouse models, the difference in mean tumor volume between each treated group and the control group was analyzed using Dunnett’s test. In the study of intracranial tumor transplanted mouse models, the difference of the mean logarithmically transformed total flux of each treated group with that of the control group was evaluated with Dunnett’s test.

[5] = tested on: pEGFR, pAkt, pErk1/2 in NCI-H1975 xenograft tumors; experiment: Pharmacodynamic marker analysis (immunoblotting) in NCI-H1975 xenograft tumors; format: in vivo, mouse; settings: for phosphorylation of EGFR, Akt, and Erk1/2 in tumor: 24 h
Description: Frozen tumor samples were homogenized in cold RIPA buffer (Thermo Fisher Scientific) supplemented with PhosSTOP (Merck KGaA) and cOmplete, Mini, EDTA-free Protease Inhibitor Cocktail (Merck KGaA) using Multi-beads Shocker (Yasui Kikai Corporation). The tumor protein extracts obtained via centrifugation of the supernatants were stored on ice until the assay. The protein concentration of the extracts was determined using BCA Protein Assay (Thermo Fisher Scientific), according to the manufacturer’s protocol. The protein concentration of the extracts was adjusted to 1 mg/mL using RIPA buffer and Lane Marker Reducing Sample Buffer (Thermo Fisher Scientific) to prepare SDS-PAGE samples; afterward, the samples were denatured by heating at 98 °C for 5 min. After cooling to room temperature, the extracts and samples were frozen until SDS-PAGE analysis. 5 μg/lane of each SDS-PAGE sample was subjected to SDS-PAGE analysis using 7.5% polyacrylamide gels (Bio-Rad Laboratories) and transferred to polyvinylidene difluoride (PVDF) membranes using a Trans-Blot Turbo Transfer System (Bio-Rad Laboratories). Membranes were blocked with the PVDF Blocking Reagent for Can Get Signal (TOYOBO). After blotting with primary antibodies, the membranes were incubated with horseradish peroxidase (HRP)-conjugated secondary antibodies. The antibodies were diluted in Can Get Signal Solution1/2 (TOYOBO) according to the manufacturer’s protocol. […] All antibodies were diluted to a concentration of 1:1000.

[6] = Assessment of brain penetrability in mice (plasma and brain PK); format: in vivo; settings: BALB/cAJcl-nu/nu, mouse; for AUC(0-t): plasma, male nude mice, read-out: AUC0-24 hr Plasma; for Kp uu / Kp: male, oral; for Kp uu: brain, unbound brain AUC / unbound plasma AUC; for Kp: brain AUC0-24 hr / plasma AUC0-24 hr
Description: Prior to the study, the animal use protocol was reviewed and approved by the Institutional Animal Care and Use Committee in Sekisui Medical Co., Ltd., and the study was conducted in accordance with the regulations and guidelines of animal experiments specified by the Testing Facility in Sekisui Medical Co., Ltd. On the day of administration, the mice were assigned to groups by the stratification body weight average method. […] After centrifugation of the blood samples, the collected plasma samples were stored in an ultra-low-temperature freezer until the analysis. At the same time, the brain samples also collected, weighed, and mixed with PBS at ratio of 1:3 (w/v). After adding zirconia beads to the container, the brain samples were homogenized with Shake Master Auto (Biomedical Science) for 3 min to prepare the brain homogenate. The homogenate samples were stored in an ultra-low-temperature freezer until the analysis. […] The areas under the concentration-time curve from 0 to 24 h (AUC0-24 hr) of plasma and brain were calculated from mean concentration values using Phoenix WinNonlin 8.1 (Certara). Kp,brain was determined by dividing the total brain AUC0-24 hr by the total plasma AUC0-24 hr. Kp,uu,brain was determined by dividing the unbound brain AUC0-24 hr by the unbound plasma AUC0-24 hr, and the unbound AUC0-24 hr was determined by multiplying the total AUC0-24 hr by the respective tissue unbound fraction.

[7] = tested on: NIH/3T3-EGFR (ex19del/T790M/C797S)-luc cells; experiment: Intracranial tumor transplanted mouse allograft model; format: in vivo; settings: 20 and 40 mg/kg; with statistical significance
Description: Male nude mice (BALB/cAJcl-nu/nu, 6 weeks old, microbiological grade: Specific pathogen free, CLEA Japan) were each head-fixed under anesthesia with a stereotaxic apparatus, and 2 μL of the cell suspension was injected at 0.5 mm anterior, 2.0 mm right, and 3.5 mm deep from the bregma, whereby 1.0 × 10^4 cells per mouse were transplanted. The mice were anesthetized with an intraperitoneal injection of the MMB mixed agent, a saline with 0.075 mg/mL medetomidine hydrochloride (Nippon Zenyaku Kogyo CO., Ltd.), 0.4 mg/mL midazolam (Fuji Pharma Co., Ltd.), and 0.5 mg/mL butorphanol tartrate (Meiji Seika Pharma Co., Ltd.), at a volume of 10 mL/kg body weight. Propeto (Maruishi Pharmaceutical Co., Ltd.) was applied to the eyeballs to prevent drying during the transplantation. The day of cell transplantation was defined as day 0. 150 mg/kg Luciferin (Promega Corporation) was intraperitoneally administered to measure the level of luminescence (photons/s) using an IVIS Lumina II Imaging System (PerkinElmer) on days 8, 13, and 19. Mice were anesthetized with isoflurane and placed in the prone position in the IVIS Lumina II Imaging System chamber. […] The total flux in the region of interest of the head was calculated using Living Image software (version 3.2.0.7800). […] The application of the humane endpoints was determined primarily based on body weight change, behavior, and systemic physical condition. […]

255 kinases = experiment: Kinome-wide selectivity, Off-chip Mobility Shift Assay; format: biochemical; settings: 20 nmol/L
Description: However, the potential secondary effects of the pharmacological inhibition of these eight kinases, with IC50 values below that of the wild-type EGFR, remain to be elucidated.
Supplementary Fig 3. […] The […]
plasmon resonance (SPR) analysis with single-cycle kinetics. KD values were calculated via curve fitting with 1:1 binding model or steady-state affinity evaluation. Mean KD values and standard deviation (s.d.) obtained from three independent experiments are shown.
Supplementary Fig 4. Kinome-wide selectivity of TAS3351. […]
determination of the IC50 values. […]

[8] = Body weight evaluation in allograft and xenograft mouse models; format: in vivo; settings: once-daily oral administration; NIH/3T3-EGFR allograft models (Fig. 5a–d)
Description: The tumor volumes were calculated using the following equation: Tumor Volume (mm^3) = 0.5 × major axis (mm) × minor axis (mm) × minor axis (mm). […] Tukey’s test (SAS with EXSUS) was used to evaluate statistical significance (p ≥ 0.05) on the logarithmically transformed mean tumor volume in each allocated group on Days 0 or 1, and no statistical significance was confirmed before initiating the experiments. During the experiments, the mice in each labeled cage were identified by the position of the cut on their pinnae. The test compounds were administered orally at a dose of 10 mL/kg. The tumor volume and body weight of each mouse were measured once every 2–5 days. The application of the humane endpoints was determined primarily based on tumor volume, body weight change, and systemic physical condition. For Pharmacodynamics Marker (PD) analysis, the mice were randomized into groups based on tumor volume when the average tumor volume reached approximately 400–600 mm^3, following the previously described procedure, including the identification of individual mice. […] Tumor samples were excised and placed in homogenate tubes, frozen in liquid nitrogen, and stored in an ultra-low temperature freezer set at −80 °C until use.
Based on the predefined humane endpoint criteria for this study, †each animal in vehicle control and
under anesthesia on day 8. […]

[9] = tested on: EGFR harboring L718Q and L718V; experiment: Inhibitory spectrum against other osimertinib-resistant mutations (author rebuttal); settings: data not shown
[10] = tested on: P-gp and BCRP in Caco-2 cells
[11] = molecular target: human recombinant EGFR Ex19del (Homo sapiens, UniProt P00533, DEL746-750); experiment: EGFR biochemical kinetics assay (PhosphoSens Kinase Assay), Ki
[12] = molecular target: human recombinant EGFR Ex19del/T790M (Homo sapiens, UniProt P00533, DEL746-750/T790M); experiment: as above
[13] = molecular target: human recombinant EGFR Ex19del/T790M/C797S (Homo sapiens, UniProt P00533, C797S/DEL746-750/T790M); experiment: as above
[14] = molecular target: human recombinant EGFR L858R (Homo sapiens, UniProt P00533, L858R); experiment: as above
[15] = molecular target: human recombinant EGFR L858R/T790M (Homo sapiens, UniProt P00533, L858R/T790M); experiment: as above

Structure (SMILES): C#Cc1c(-c2cnc3ccccc3c2)c2c(N)ncnc2n1C12CCC(NC(=O)c3cnc(C)cn3)(CC1)C2 [TAS3351]
- IC50 values [1]: sub-nanomolar range
- IC50 [2]: 2.84 nM
- IC50 [3]: 241 nM
- inhibition of xenograft growth [4]: did not demonstrate statistically significant inhibition of xenograft growth
- phosphorylation of EGFR, Akt, and Erk1/2 in tumor ([5]; 40 mg/kg single oral): restored to nearly baseline
- phosphorylation of EGFR, Akt, and Erk1/2 in tumor ([5]; 80 mg/kg single oral): partially inhibited
- phosphorylation of EGFR, Akt, and Erk1/2 in tumor vs control ([5]; 40 and 80 mg/kg single oral, 1–8 h post-administration): significantly reduced
- AUC(0-t) ([6]; 20 mg/kg single oral): 72.5 µM·h
- AUC(0-t) ([6]; 40 mg/kg single oral): 202 µM·h
- AUC(0-t) ([6]; 80 mg/kg single oral): 377 µM·h
- Kp uu ([6]; 20 mg/kg): 0.68
- Kp uu ([6]; 40 mg/kg): 1.08
- Kp uu ([6]; 80 mg/kg): 1.47
- Kp ([6]; 20 mg/kg): 0.32
- Kp ([6]; 40 mg/kg): 0.51
- Kp ([6]; 80 mg/kg): 0.69
- intracranial luciferase activity (total flux) vs vehicle [7]: reduced intracranial luciferase activity
- number of kinases whose enzymatic activity was inhibited by over 50% (255 kinases): 26
- body weight [8]: without apparent body weight loss
- efficacy against EGFR harboring L718Q and L718V [9]: not effective
- P-gp or BCRP substrate [10]: not a P-gp or BCRP substrate
- Ki [11]: 0.0048 nM
- Ki [12]: 0.00649 nM
- Ki [13]: 0.018 nM
- Ki [14]: 0.259 nM
- difference in the Ki values between ex19del and L858R mutations ([14]; L858R vs ex19del): over 50 fold
- Ki [15]: 0.224 nM

— PMC13181001 (Communications Medicine, 2026)
